In patent US6905706B2, “Medicinal herbal extract carpediol for treating depression” (Swedish Herbal Institute, priority 2002, dated 2005):

Test: Effect of co-administered extracts on the pharmacokinetics of theophylline in rats
Conditions: male, Wistar, rat, in vivo; for Cmax: Cmax of Theophylline; for AUC(0-inf): AUC0-∞ of Theophylline; for MRT: MRT of Theophylline
Protocol: Carpediol spissum (Batch No Ex 20404); Swedish Herbal Institute, Gothenburg, Sweden) as described above in Example 1. […] It was analyzed for purity by HPLC, Capillary electrophoresis, ^1H-NMR and ^13C-NMR. • (e) Internal standard: Methyl-4-hydroxybenzoate 99%, F.W. 152.15 Aldrich. • (f) Water, demonized and distilled. • (g) Water for High Performance Capillary Electrophoresis (HPCE), HEWLETT-PACKARD. • (h) Buffer pH=9.3 for HPCE (50 mM Borate). • (i) 0.1N Sodium Hydroxide Solution for HPCE. • (j) Chloroform HPLC grade. • (k) 2-Propanol spectrophotometric grade. • (l) Methanol Chromasorv.
Animals—In this study, 144 time-mated male Wistar rats were used. Breeder: Institute of Fine Organic Chemistry of the National Academy of Science, Yerevan. The initial weight of the animals: 130-170 g (mean weight 149.93±12.4 g). […] All animals were clinically examined upon arrival and any animal showing signs of abnormality or disease was excluded. Animals considered unsuitable for the study were replaced before the start. No animal was replaced following the start of the study.
Dosage and Administration—An appropriate amount of herbal extract was dissolved in distilled water and given at 10:00-10:30 am by oral gavage. Suspensions were shaken gently before oral administration. Suspensions were prepared fresh every day. Control animals were given an appropriate volume of drinking water. Blood samples from rats receiving the carrier only were also analyzed.
Groups of six animals were treated orally with water (10 ml×2 times per day) for three days. 60 minutes after last administration of water, a solution of Aminophylline (10 ml/kg) was given to each animal in dose of 240 mg/kg (corresponding to 192 mg/kg of Theophylline) and blood samples were taken 0.25, 0.5, 1.0, 2.0, 4.0, 6.0 and 8.0 hours after the theophylline administration. A separate group of animals was used for each time point.
It was administered orally in a volume of 10 ml/kg of body weight. Freshly prepared extract was administered two times daily for 3 consecutive days. Single dose—25 mg/kg, daily dose—50 mg/kg. 60 minutes after last administration, a water solution of Aminophylline (10 ml/kg) was given to each animal in dose of 240 mg/kg (corresponding to 192 mg/kg of Theophylline) and blood samples were taken 0.25, 0.5, 1.0, 2.0, 4.0, 6.0 and 8.0 hours after the theophylline administration. A separate group of animals was used for each time point.
One tablet of Jarsin 300 was suspended in 10 ml of water and administered two times daily for 3 consecutive days. 60 minutes after last administration, water solution of Aminophylline (10 ml/kg) was given to each animal in dose of 240 mg/kg (corresponding to 192 mg/kg of Theophylline) and blood samples were taken 0.25, 0.5, 1.0, 2.0, 4.0, 6.0 and 8.0 hours after the theophylline administration. A separate group of animals was used for each time point.
Sampling of blood and sample preparation—Animals were sacrificed by laboratory guillotine. Following decapitation, blood was collected separately in centrifuge tubes and centrifuged at 3000 rpm for 10 min. Blood serum was separated and 50 μl was taken for theophylline assay. Conservation of the samples: the centrifuge tubes were closed with caps, frozen and stored in a freezer for 1-3 days prior to bio-assay.
Analytical Method: Capillary Electrophoresis—A modified capillary electrophoresis method was used, using an internal standard and as a mobile phase 50 mM borate buffer (pH 9.3) without SDS.
Pre-assay preparation—The Ramzan et al. method (52) of extraction of theophylline from serum was modified as follows. 50 μl of blood serum was added to 10 μl of an internal standard methanol solution (methyl-paraben, 60 μg/ml) in centrifuge tube to obtain final concentration of methyl paraben 10 μg/ml. The solution was vortexed vigorously for 10 sec and 1 ml of solvent system of isopropanol. and chloroform in a 5:95 ratio was added for extraction.

[1] = Concentration of Theophylline in Rat Serum, Mean, Group 2 (CRE pretreatment 3 days), aminophylline 240 mg/kg p.o., mean n=6
[2] = Concentration of Theophylline in Rat Serum, Mean, Group 3 (Jarsin 300 pretreatment 3 days), aminophylline 240 mg/kg p.o., mean n=6
[3] = po, 240 mg/kg, Group 2 (CRE pretreatment), rats, calculated by mean concentrations
[4] = po, 240 mg/kg, Mean, Group 1 (water control), rats, mean of 6 series (column A)
[5] = po, 240 mg/kg, Mean, Group 2 (CRE pretreatment), rats, mean of 6 series (column A)
[6] = po, 240 mg/kg, Mean, Group 3 (Jarsin 300 pretreatment), rats, mean of 6 series (column A)
[7] = po, Group 3 (Jarsin 300 pretreatment), rats, calculated by mean concentrations
[8] = po, Mean, Group 3 (Jarsin 300 pretreatment), rats, mean of 6 series (column A)
[9] = po, Mean, Group 2 (CRE pretreatment), rats, mean of 6 series (column A)

In the case of Cn1c(=O)c2[nH]cnc2n(C)c1=O [Theophylline, 1,3-dimethylxantin], the concentration at 480 min (240 mg/kg, Level of theophylline in serum after 480 minutes, Group 1 (water control), rats) is reported as roughly 51000 ng/mL, the Cmax (Group 2 (CRE pretreatment), rats, calculated by mean concentrations, 60 minutes) is reported as 142000 ng/mL and the Cmax (Group 3 (Jarsin 300 pretreatment), rats, calculated by mean concentrations, 60 minutes) is reported as 41600 ng/mL. For the same compound, the concentration at 60 min (Concentration of Theophylline in Rat Serum, Group 2 (CRE pretreatment 3 days), aminophylline 240 mg/kg p.o., single rat) was 109000 ng/mL, the concentration at 15 min (Concentration of Theophylline in Rat Serum, Group 3 (Jarsin 300 pretreatment 3 days), aminophylline 240 mg/kg p.o., single rat) was 6640 ng/mL and the concentration at 15 min [1] was 128000 ng/mL. The concentration at 30 min [1] was 138000 ng/mL, the concentration at 60 min [1] was 142000 ng/mL and the concentration at 120 min [1] was 130000 ng/mL. It also gave a concentration at 240 min [1] of 103000 ng/mL, a concentration at 360 min [1] of 71000 ng/mL and a concentration at 480 min (Concentration of Theophylline in Rat Serum, Mean, Group 2 (CRE pretreatment 3 days), aminophylline 240 mg/kg p.o., 480 min, mean n=6) of 31800 ng/mL. For the same compound, the concentration at 15 min [2] was 5170 ng/mL, the concentration at 30 min [2] was 25500 ng/mL and the concentration at 60 min [2] was 41600 ng/mL. For the same compound, the concentration at 120 min [2] was 31100 ng/mL, the concentration at 240 min [2] was 16500 ng/mL and the concentration at 360 min [2] was 15700 ng/mL. For the same compound, the concentration at 480 min (Concentration of Theophylline in Rat Serum, Mean, Group 3 (Jarsin 300 pretreatment 3 days), aminophylline 240 mg/kg p.o., 480 min, mean n=6) was 9280 ng/mL, the concentration at 480 min (Theophylline concentration in serum after 480 minutes, Group 2 (rats treated with CRE)) was roughly 32000 ng/mL and the concentration at 480 min (Theophylline concentration in serum after 480 minutes, Group 3 (rats treated with Jarsin 300)) was roughly 9300 ng/mL. The AUC(0-inf) (po, 240 mg/kg, Group 1 (water control), rats, single series) was 1090 µg·h/mL, the AUC(0-inf) [3] was 956 µg·h/mL and the AUC(0-inf) (po, 240 mg/kg, Mean, Group 1 (water control), rats, mean of 6 series) was 1020 µg·h/mL. For the same compound, the AUC(0-inf) [4] was 1020 ± 109 µg·h/mL, the AUC(0-inf) [5] was 920 ± 128 µg·h/mL and the AUC(0-inf) (po, 240 mg/kg, Mean, Group 3 (Jarsin 300 pretreatment), rats, mean of 6 series) was 214 µg·h/mL. It also gave a Cmax [4] of 195000 ng/mL, a Cmax [5] of 169000 ± 14400 ng/mL and a Cmax [6] of 43900 ng/mL. For the same compound, the MRT (po, 240 mg/kg, Group 1 (water control), rats, calculated by mean concentrations) was 6.83 h, the MRT [3] was 5.14 h and the MRT [4] was 6.62 h. For the same compound, the MRT [5] was 4.45 ± 0.696 h, the MRT [6] was 5.44 h and the half-life (po, 240 mg/kg, T1/2 of Theophylline, Group 1 (water control), rats, calculated by mean concentrations) was 4.66 h. For the same compound, the half-life (po, 240 mg/kg, T1/2 of Theophylline, Group 2 (CRE pretreatment), rats, calculated by mean concentrations) was 3.39 h, the half-life (po, 240 mg/kg, T1/2 of Theophylline, Mean, Group 2 (CRE pretreatment), rats, mean of 6 series (column A)) was 2.81 ± 0.404 h and the half-life (po, 240 mg/kg, t1/2 of Theophylline, Mean, Group 1 (water control), rats, mean of 6 series (column A)) was 4.5 h. It also gave a half-life (po, 240 mg/kg, t1/2 of Theophylline, Mean, Group 3 (Jarsin 300 pretreatment), rats, mean of 6 series (column A)) of 3.55 h, an AUC(0-inf) (po, Group 1 (water control), rats, calculated by mean concentrations) of 1030 µg·h/mL and an AUC(0-inf) [7] of 208 µg·h/mL. It also gave an AUC(0-inf) (po, Mean, Group 2 (CRE pretreatment), rats, mean of 6 series) of 920 µg·h/mL, an AUC(0-inf) [8] of 214 ± 31 µg·h/mL and a Cmax (po, Group 2 (CRE pretreatment), rats, single series) of 158000 ng/mL. The Cmax (po, Group 3 (Jarsin 300 pretreatment), rats, calculated by mean concentrations, 60 minutes) was 41600 ng/mL, the Cmax [9] was 169000 ng/mL and the Cmax [8] was 43900 ± 8490 ng/mL. The MRT [7] was 5.36 h, the MRT [9] was 4.45 h and the MRT [8] was 5.44 ± 0.559 h. For the same compound, the half-life (po, T1/2 of Theophylline, Group 3 (Jarsin 300 pretreatment), rats, calculated by mean concentrations) was 3.43 h, the half-life (po, T1/2 of Theophylline, Mean, Group 2 (CRE pretreatment), rats, mean of 6 series (column A)) was 2.81 h and the half-life (po, t1/2 of Theophylline, Mean, Group 3 (Jarsin 300 pretreatment), rats, mean of 6 series (column A)) was 3.55 ± 0.549 h.
